In patent US20240182945A1, “PRODUCTS FOR REGULATION OF EUKARYOTIC AND MICROBIAL CELLS GROWTH” (priority 2021, published 2024):

How the values were obtained:
Pseudomonas aeruginosa = conditions: cited from earlier work
[1] = test system: S.aureus (PP) and MM in sputum from children with pneumonia; test: Degree of eradication of PP and MM on Columbia agar with antibiotic at concentrations achievable at the site of infection; format: cell-based; design: key to Degree of primary pathogen eradication, evaluation of ABEPP: % of primary pathogen (PP) eliminated
Method: We next tried to select antibiotics based on building a probability model. Antibiotic efficacy was evaluated based on a novel parameters: • ABEPPMM100—antibiotic concentration that is required for the elimination of 100% “complex” PP+MM. • ABEPPMM99—antibiotic concentration that is required for the elimination of 99% “complex” PP+MM.
ABEPPMM90—antibiotic concentration that is required for the elimination of 90% “complex” PP+MM.
ABEPPMM50—antibiotic concentration that is required for the elimination of 50% “complex” PP+MM.
ABEPP100—antibiotic concentration that affecting on “complex” PP+MM is required for the elimination of 100% PP.
ABEPP99—antibiotic concentration that affecting on “complex” PP+MM is required for the elimination of 99% PP.
ABEPP90—antibiotic concentration that affecting on “complex” PP+MM is required for the elimination of 90% PP.
ABEPP50—antibiotic concentration that affecting on “complex” PP+MM is required for the elimination of 50% PP.
We used sputum from children with pneumonia, with S.aureus as confirmed PP. Patient 1—child • Patient 2—child • Patient 3—child

[2] = 3 h; cited from earlier work
[3] = test system: bacteria of sputum from patients with lung diseases; test: Sputum plated on 24-well plates with antibiotics at Cmax or C0-4 h, Algorithm #1 or #2; format: cell-based; further: key: '+'—presence of bacterial growth, antibiotic ineffective; '−'—absence of bacterial growth, antibiotic effective
Method: Pathological material (sputum) from patients with lung diseases was plated into wells of 24-well plates filled with a nutrient medium supplemented with erythrocytes 5%, to which antibiotics were added taken at different concentrations.
Group #1—antibiotics were taken at concentrations close to a maximum (peak) concentration achievable at the site of infection Cmax
Algorithm #1. Lab technician, analyzed the appearance of bacterial growth by comparing the signs of bacterial growth in each well supplemented with antibiotic(s) at certain timepoint, with the signs of bacterial growth in the same well at previous time point(s).
Algorithm #2. Lab technician analyzed the appearance of bacterial growth by comparing the signs of bacterial growth in each well supplemented with antibiotic(s) with bacterial growth in antibiotic-free control

[4] = test system: bacteria of sputum from patients with lung diseases; test: Standard antibiotic susceptibility study using the microbroth dilution method (Algorithm #3); format: cell-based; further: key: '+'—presence of bacterial growth, antibiotic ineffective; '−'—absence of bacterial growth, antibiotic effective
Text: Algorithm #3—Standard antibiotic susceptibility study using the microbroth dilution method.

[5] = test system: bacteria of the biosample (persisters); test: Neutropenic mice instilled with biosample and treated with antibiotic for 72 h, microbial growth in organs and blood; format: in vivo; conditions: neutropenic C57BL/6 mice treated for 72 h, agar with 100 ug/mL of the antibiotic
Method: Next, we confirmed that antibiotics selected with proposed algorithm are effective. Adult C57BL/6 mice were rendered neutropenic by injecting cyclophosphamide subcutaneously 4 days before infection (150 mg/kg of body weight), 1 day before infection (100 mg/kg), and 1 day after infection (100 mg/kg). Mice were anesthetized with 2% isoflurane and orally instilled with biosample (stored at +4 C). Briefly, nares were blocked, and mice aspirated 50 μL of the biosample into the lungs while being held vertically for 60 s.

[6] = Patient 1, C0-1 h, 24 h of growth
[7] = Patient 1, C0-2 h, 24 h of growth
[8] = Patient 1, C0-3 h, 24 h of growth
[9] = Patient 1, C0-4 h, 24 h of growth
[10] = Patient 1, C0-6 h, 24 h of growth
[11] = Patient 1, C0-8 h, 24 h of growth
[12] = Patient 1, C0-12 h, 24 h of growth
[13] = Patient 1, C0-24 h, 24 h of growth
[14] = Patient 1, C2-3 h, 24 h of growth
[15] = Patient 1, C3-4 h, 24 h of growth
[16] = Patient 1, C4-6 h, 24 h of growth
[17] = Patient 1, C6-8 h, 24 h of growth
[18] = Patient 1, C8-12 h, 24 h of growth
[19] = Patient 1, C12-24 h, 24 h of growth
[20] = Patient 1, Cmax × 2, 24 h of growth
[21] = Patient 2, C0-3 h, 24 h of growth
[22] = Patient 2, C0-4 h, 24 h of growth
[23] = Patient 2, C0-6 h, 24 h of growth
[24] = Patient 2, C0-8 h, 24 h of growth
[25] = Patient 2, C0-12 h, 24 h of growth
[26] = Patient 2, C0-24 h, 24 h of growth
[27] = Patient 2, C3-4 h, 24 h of growth
[28] = Patient 2, C4-6 h, 24 h of growth
[29] = Patient 2, C6-8 h, 24 h of growth
[30] = Patient 2, C8-12 h, 24 h of growth
[31] = Patient 2, C12-24 h, 24 h of growth
[32] = Patient 3, C0-3 h, 24 h of growth
[33] = Patient 3, C0-4 h, 24 h of growth
[34] = Patient 3, C0-6 h, 24 h of growth
[35] = Patient 3, C0-8 h, 24 h of growth
[36] = Patient 3, C0-12 h, 24 h of growth
[37] = Patient 3, C0-24 h, 24 h of growth
[38] = Patient 3, C3-4 h, 24 h of growth
[39] = Patient 3, C4-6 h, 24 h of growth
[40] = Patient 3, C6-8 h, 24 h of growth
[41] = Patient 3, C8-12 h, 24 h of growth
[42] = Patient 3, C12-24 h, 24 h of growth

SMILES: CC1=C(C(=O)O)N2C(=O)[C@@H](NC(=O)[C@H](N)c3ccccc3)[C@H]2SC1 [Cephalexin]
- activity against Pseudomonas aeruginosa according to standard micro-broth dilution method (Pseudomonas aeruginosa): not active

SMILES: C[C@H]1COc2c(N3CCN(C)CC3)c(F)cc3c(=O)c(C(=O)O)cn1c23 [Levofloxacin]
- Degree of primary pathogen eradication, evaluation of ABEPP [1, 6]: 100
- Degree of primary pathogen eradication, evaluation of ABEPPMM [1, 6]: 99
- Degree of primary pathogen eradication, evaluation of ABEPP [1, 7]: 99
- Degree of primary pathogen eradication, evaluation of ABEPPMM [1, 7]: 99
- Degree of primary pathogen eradication, evaluation of ABEPP [1, 8]: 90
- Degree of primary pathogen eradication, evaluation of ABEPPMM [1, 8]: 90
- Degree of primary pathogen eradication, evaluation of ABEPP [1, 9]: 100
- Degree of primary pathogen eradication, evaluation of ABEPPMM [1, 9]: 100
- Degree of primary pathogen eradication, evaluation of ABEPP [1, 10]: 100
- Degree of primary pathogen eradication, evaluation of ABEPPMM [1, 10]: 100
- Degree of primary pathogen eradication, evaluation of ABEPP [1, 11]: 50
- Degree of primary pathogen eradication, evaluation of ABEPPMM [1, 11]: 50
- Degree of primary pathogen eradication, evaluation of ABEPP [1, 12]: 50
- Degree of primary pathogen eradication, evaluation of ABEPPMM [1, 12]: 50
- Degree of primary pathogen eradication, evaluation of ABEPP [1, 13]: 0
- Degree of primary pathogen eradication, evaluation of ABEPPMM [1, 13]: 0
- Degree of primary pathogen eradication, evaluation of ABEPP [1, 14]: 90
- Degree of primary pathogen eradication, evaluation of ABEPPMM [1, 14]: 90
- Degree of primary pathogen eradication, evaluation of ABEPP [1, 15]: 99
- Degree of primary pathogen eradication, evaluation of ABEPPMM [1, 15]: 99
- Degree of primary pathogen eradication, evaluation of ABEPP [1, 16]: 100
- Degree of primary pathogen eradication, evaluation of ABEPPMM [1, 16]: 100
- Degree of primary pathogen eradication, evaluation of ABEPP [1, 17]: 90
- Degree of primary pathogen eradication, evaluation of ABEPPMM [1, 17]: 90
- Degree of primary pathogen eradication, evaluation of ABEPP [1, 18]: 50
- Degree of primary pathogen eradication, evaluation of ABEPPMM [1, 18]: 50
- Degree of primary pathogen eradication, evaluation of ABEPP [1, 19]: 50
- Degree of primary pathogen eradication, evaluation of ABEPPMM [1, 19]: 50
- Degree of primary pathogen eradication, evaluation of ABEPP [1, 20]: 100
- Degree of primary pathogen eradication, evaluation of ABEPPMM [1, 20]: 99
- Degree of primary pathogen eradication, evaluation of ABEPP [1, 21]: 50
- Degree of primary pathogen eradication, evaluation of ABEPPMM [1, 21]: 50
- Degree of primary pathogen eradication, evaluation of ABEPP [1, 22]: 50
- Degree of primary pathogen eradication, evaluation of ABEPPMM [1, 22]: 50
- Degree of primary pathogen eradication, evaluation of ABEPP [1, 23]: 50
- Degree of primary pathogen eradication, evaluation of ABEPPMM [1, 23]: 50
- Degree of primary pathogen eradication, evaluation of ABEPP [1, 24]: 50
- Degree of primary pathogen eradication, evaluation of ABEPPMM [1, 24]: 50
- Degree of primary pathogen eradication, evaluation of ABEPP [1, 25]: 50
- Degree of primary pathogen eradication, evaluation of ABEPPMM [1, 25]: 0
- Degree of primary pathogen eradication, evaluation of ABEPP [1, 26]: 0
- Degree of primary pathogen eradication, evaluation of ABEPPMM [1, 26]: 0
- Degree of primary pathogen eradication, evaluation of ABEPP [1, 27]: 50
- Degree of primary pathogen eradication, evaluation of ABEPPMM [1, 27]: 50
- Degree of primary pathogen eradication, evaluation of ABEPP [1, 28]: 50
- Degree of primary pathogen eradication, evaluation of ABEPPMM [1, 28]: 50
- Degree of primary pathogen eradication, evaluation of ABEPP [1, 29]: 50
- Degree of primary pathogen eradication, evaluation of ABEPPMM [1, 29]: 50
- Degree of primary pathogen eradication, evaluation of ABEPP [1, 30]: 50
- Degree of primary pathogen eradication, evaluation of ABEPPMM [1, 30]: 0
- Degree of primary pathogen eradication, evaluation of ABEPP [1, 31]: 0
- Degree of primary pathogen eradication, evaluation of ABEPPMM [1, 31]: 0
- Degree of primary pathogen eradication, evaluation of ABEPP [1, 32]: 50
- Degree of primary pathogen eradication, evaluation of ABEPPMM [1, 32]: 50
- Degree of primary pathogen eradication, evaluation of ABEPP [1, 33]: 50
- Degree of primary pathogen eradication, evaluation of ABEPPMM [1, 33]: 0
- Degree of primary pathogen eradication, evaluation of ABEPP [1, 34]: 0
- Degree of primary pathogen eradication, evaluation of ABEPPMM [1, 34]: 0
- Degree of primary pathogen eradication, evaluation of ABEPP [1, 35]: 0
- Degree of primary pathogen eradication, evaluation of ABEPPMM [1, 35]: 0
- Degree of primary pathogen eradication, evaluation of ABEPP [1, 36]: 0
- Degree of primary pathogen eradication, evaluation of ABEPPMM [1, 36]: 0
- Degree of primary pathogen eradication, evaluation of ABEPP [1, 37]: 0
- Degree of primary pathogen eradication, evaluation of ABEPPMM [1, 37]: 0
- Degree of primary pathogen eradication, evaluation of ABEPP [1, 38]: 50
- Degree of primary pathogen eradication, evaluation of ABEPPMM [1, 38]: 50
- Degree of primary pathogen eradication, evaluation of ABEPP [1, 39]: 0
- Degree of primary pathogen eradication, evaluation of ABEPPMM [1, 39]: 0
- Degree of primary pathogen eradication, evaluation of ABEPP [1, 40]: 0
- Degree of primary pathogen eradication, evaluation of ABEPPMM [1, 40]: 0
- Degree of primary pathogen eradication, evaluation of ABEPP [1, 41]: 0
- Degree of primary pathogen eradication, evaluation of ABEPPMM [1, 41]: 0
- Degree of primary pathogen eradication, evaluation of ABEPP [1, 42]: 0
- Degree of primary pathogen eradication, evaluation of ABEPPMM [1, 42]: 0
- lung concentration after 3 h of administration [2]: 4.7 µg/mL

SMILES: CN[C@H](CC(C)C)C(=O)N[C@H]1C(=O)N[C@@H](CC(N)=O)C(=O)N[C@H]2C(=O)N[C@H]3C(=O)N[C@H](C(=O)N[C@H](C(=O)O)c4cc(O)cc(O)c4-c4cc3ccc4O)[C@H](O)c3ccc(c(Cl)c3)Oc3cc2cc(c3O[C@@H]2O[C@H](CO)[C@@H](O)[C@H](O)[C@H]2O[C@H]2C[C@](C)(N)[C@H](O)[C@H](C)O2)Oc2ccc(cc2Cl)[C@H]1O [Vancomycin]
- ATB efficacy ([3]; Algorithm #1, antibiotic at C0-4 h): +
- ATB efficacy ([3]; Algorithm #1, antibiotic at Cmax): −
- ATB efficacy ([3]; Algorithm #2, antibiotic at C0-4 h): +
- ATB efficacy ([3]; Algorithm #2, antibiotic at Cmax): −
- activity against Pseudomonas aeruginosa according to standard micro-broth dilution method (Pseudomonas aeruginosa): not active
- ATB efficacy [4]: −
- Number of animals with positive microbial growth on the agar with antibiotics/total number of animals per group ([5]; Blood): 6/8
- Number of animals with positive microbial growth on the agar with antibiotics/total number of animals per group ([5]; Liver): 5/8
- Number of animals with positive microbial growth on the agar with antibiotics/total number of animals per group ([5]; Lungs): 8/8
